Laboratory results as given in patent US10681909B2, “Herbicidal triazoles” (FMC Corporation, priority 2014, dated 2020).

What was measured:
Experiment in all cases: Test E preemergence
Conditions in all cases: scale 0 to 100
corn = type: in vivo, Zea mays
Text: (§1) Seeds of plant species selected from corn (Zea mays), soybean (Glycine max), lambsquarters (Chenopodium album), poinsettia, wild (wild poinsettia, Euphorbia heterophylla), pigweed, palmer (palmer pigweed, Amaranthus palmeri), waterhemp (common waterhemp, Amaranthus rudis), surinam grass (Brachiaria decumbens), crabgrass, large (large crabgrass, Digitaria sanguinalis), crabgrass, Brazilian (Brazilian crabgrass, Digitaria horizontalis), panicum, fall (fall panicum, Panicum dichotomiflorum), foxtail, giant (giant foxtail, Setaria faberii), foxtail, green (green foxtail, Setaria viridis), goosegrass (Eleusine indica), johnsongrass (Sorghum halepense), ragweed (common ragweed, Ambrosia elatior), barnyardgrass (Echinochloa crus-galli), sandbur (southern sandbur, Cenchrus echinatus), arrowleaf sida (Sida rhombifolia), ryegrass, Italian (Italian ryegrass, Lolium multiflorum), dayflower, VA (Virginia dayflower, Commelina virginica), field bindweed (Convolvulus arvensis), cocklebur (common cocklebur, Xanthium strumarium), morningglory (Ipomoea coccinea), nightshade (eastern black nightshade, Solanum ptycanthum), kochia (Kochia scoparia), nutsedge, yellow (yellow nutsedge, Cyperus esculentus), smartweed (ladysthumb smartweed, Polygonum persicaria), velvetleaf (Abutilon theophrasti), horseweed (Conyza canadensis), and beggarticks (hairy beggarticks, Bidens pilosa), were planted into a silt loam soil and treated preemergence with test chemicals formulated in a non-phytotoxic solvent mixture which included a surfactant.
(§2) At the same time, plants from these crop and weed species and also waterhemp_RES1, (ALS & Triazine resistant common waterhemp, Amaranthus rudis), and waterhemp_RES2, (ALS & HPPD resistant common waterhemp, Amaranthus rudis) were planted in pots containing Sunshine Redi-Earth® planting medium comprising spaghnum peat moss, vermiculite, starter nutrients and dolomitic limestone were treated with postemergence applications of test chemicals formulated in the same manner. Plants ranged in height from 2 to 18 cm for postemergence treatments (1- to 4-leaf stage). Treated plants and controls were maintained in a greenhouse for 14 to 21 d, after which time all species were compared to controls and visually evaluated. Plant response ratings, summarized in Table E, are based on a scale of 0 to 100 where 0 is no effect and 100 is complete control. A dash (-) response means no test result.

soybean = type: in vivo, Glycine max
Text: as §1, §2

waterhemp = type: in vivo, Amaranthus rudis
Text: as §1, §2

surinam grass = type: in vivo, Brachiaria decumbens
Text: as §1, §2

crabgrass, large = type: in vivo, Digitaria sanguinalis
Text: as §1, §2

panicum, fall = type: in vivo, Panicum dichotomiflorum
Text: as §1, §2

foxtail, giant = type: in vivo, Setaria faberii
Text: as §1, §2

foxtail, green = type: in vivo, Setaria viridis
Text: as §1, §2

ragweed = type: in vivo, Ambrosia elatior
Text: as §1, §2

ryegrass, Italian = type: in vivo, Lolium multiflorum
Text: as §1, §2

dayflower, VA = type: in vivo, Commelina virginica
Text: as §1, §2

kochia = type: in vivo, Kochia scoparia
Text: as §1, §2

nutsedge, yellow = type: in vivo, Cyperus esculentus
Text: as §1, §2

beggarticks = type: in vivo, Bidens pilosa
Text: as §1, §2

Measured: Plant response rating

CCOc1nc(-c2ccc(F)cc2)nn1Cc1ccnc(C(F)(F)F)c1 [Compound 8, 4-[[5-ethoxy-3-(4-fluorophenyl)-1H-1,2,4-triazol-1-yl]methyl]-2-(trifluoromethyl)pyridine]
75: surinam grass; 125 g ai/ha
50: soybean; 62 g ai/ha | soybean; 125 g ai/ha | surinam grass; 62 g ai/ha
25: corn; 62 g ai/ha | nutsedge, yellow; 62 g ai/ha
95: dayflower, VA; 125 g ai/ha
80: ragweed; 62 g ai/ha
20: beggarticks; 62 g ai/ha | beggarticks; 125 g ai/ha
100: waterhemp; 62 g ai/ha | waterhemp; 125 g ai/ha | crabgrass, large; 62 g ai/ha | crabgrass, large; 125 g ai/ha | panicum, fall; 62 g ai/ha | panicum, fall; 125 g ai/ha | foxtail, giant; 62 g ai/ha | foxtail, giant; 125 g ai/ha | foxtail, green; 62 g ai/ha | foxtail, green; 125 g ai/ha | ryegrass, Italian; 125 g ai/ha | kochia; 62 g ai/ha | kochia; 125 g ai/ha
90: ragweed; 125 g ai/ha
35: nutsedge, yellow; 125 g ai/ha
65: corn; 125 g ai/ha | ryegrass, Italian; 62 g ai/ha | dayflower, VA; 62 g ai/ha

CCCc1nc(-c2ccc(F)cc2)nn1Cc1ccnc(C(F)(F)F)c1 [Compound 6, 4-[[3-(4-fluorophenyl)-5-propyl-1H-1,2,4-triazol-1-yl]methyl]-2-(trifluoromethyl)pyridine]
40: soybean; 62 g ai/ha | surinam grass; 31 g ai/ha | surinam grass; 62 g ai/ha | ryegrass, Italian; 31 g ai/ha | nutsedge, yellow; 250 g ai/ha
50: corn; 125 g ai/ha | soybean; 125 g ai/ha | surinam grass; 125 g ai/ha | surinam grass; 250 g ai/ha | foxtail, giant; 16 g ai/ha | ragweed; 125 g ai/ha | ryegrass, Italian; 62 g ai/ha
0: corn; 16 g ai/ha | soybean; 16 g ai/ha | nutsedge, yellow; 16 g ai/ha | nutsedge, yellow; 31 g ai/ha | beggarticks; 16 g ai/ha | beggarticks; 31 g ai/ha | beggarticks; 62 g ai/ha
15: corn; 31 g ai/ha | nutsedge, yellow; 62 g ai/ha
90: crabgrass, large; 62 g ai/ha | ragweed; 250 g ai/ha | dayflower, VA; 250 g ai/ha
10: soybean; 31 g ai/ha | ragweed; 16 g ai/ha | ryegrass, Italian; 16 g ai/ha | dayflower, VA; 16 g ai/ha
85: kochia; 125 g ai/ha
100: waterhemp; 62 g ai/ha | waterhemp; 125 g ai/ha | waterhemp; 250 g ai/ha | crabgrass, large; 125 g ai/ha | crabgrass, large; 250 g ai/ha | panicum, fall; 250 g ai/ha | foxtail, giant; 250 g ai/ha | foxtail, green; 250 g ai/ha | kochia; 250 g ai/ha
20: surinam grass; 16 g ai/ha | panicum, fall; 31 g ai/ha | ragweed; 31 g ai/ha | ragweed; 62 g ai/ha | beggarticks; 125 g ai/ha
30: corn; 62 g ai/ha | nutsedge, yellow; 125 g ai/ha
70: soybean; 250 g ai/ha | foxtail, green; 62 g ai/ha | ryegrass, Italian; 125 g ai/ha | dayflower, VA; 62 g ai/ha | beggarticks; 250 g ai/ha
80: waterhemp; 31 g ai/ha | foxtail, green; 125 g ai/ha | ryegrass, Italian; 250 g ai/ha | dayflower, VA; 125 g ai/ha | kochia; 31 g ai/ha | kochia; 62 g ai/ha
35: panicum, fall; 62 g ai/ha
95: panicum, fall; 125 g ai/ha | foxtail, giant; 125 g ai/ha
60: corn; 250 g ai/ha | foxtail, giant; 62 g ai/ha | dayflower, VA; 31 g ai/ha | kochia; 16 g ai/ha
